# Experimental data published in ChEMBL document CHEMBL4699511, “Cedrol, a Sesquiterpene Alcohol, Enhances the Anticancer Efficacy of Temozolomide in Attenuating Drug Resistance via Regulation of the DNA Damage Response and MGMT Expression” (J Nat Prod, 2020).
# Activity calls are given as the source filed them. The rule behind the calls is not given here.
# Assays:
# DBTRG-05MG [1] = assay: Inhibition of ERK phosphorylation at Tyr204 residues in human DBTRG-05MG cells at 206 uM after 48 hrs by Western blot analysis (reference value: 1); format: cell-based
# RG2 [2] = assay: Induction of DNA damage in rat RG2 cells assessed as ATM phosphorylation at ser1981 residues at 206 uM after 48 hrs by Western blot analysis (reference value: 1); format: functional
# DBTRG-05MG [3] = assay: Induction of cell cycle arrest in human DBTRG-05MG cells assessed as accumulation at S phase at 206 uM after 48 hrs by propidium iodide staining based flow cytometric analysis (reference value: 22.76 +/- 1.56%); format: functional
# RG2 [4] = assay: Induction of cell cycle arrest in rat RG2 cells assessed as CDK2 expression at 206 uM after 48 hrs by Western blot analysis (reference value: 1); format: functional
# DBTRG-05MG [5] = assay: Induction of apoptosis in human DBTRG-05MG cells assessed as phosphorylated caspace-3 expression at 206 uM after 48 hrs by Western blot analysis (reference value: 1); format: functional
# DBTRG-05MG [6] = assay: Induction of cell cycle arrest in human DBTRG-05MG cells assessed as p21 expression at 206 uM after 48 hrs by Western blot analysis (reference value: 1); format: functional
# RG2 [7] = assay: Induction of cell cycle arrest in rat RG2 cells assessed as p21 expression at 206 uM after 48 hrs by Western blot analysis (reference value: 1); format: functional
# DBTRG-05MG [8] = assay: Induction of cell cycle arrest in human DBTRG-05MG cells assessed as accumulation at G2/M phase at 206 uM after 48 hrs by propidium iodide staining based flow cytometric analysis (reference value: 30.08 +/- 0.1%); format: functional
# DBTRG-05MG [9] = assay: Induction of apoptosis in human DBTRG-05MG cells assessed as cleaved caspace-9 expression at 206 uM after 48 hrs by Western blot analysis (reference value: 1); format: functional
# RG2 [10] = assay: Induction of DNA damage in rat RG2 cells assessed as ATR phosphorylation at ser428 residues at 206 uM after 48 hrs by Western blot analysis (reference value: 1); format: functional
# [11] = Effect on JNK expression in rat RG2 cells at 206 uM after 48 hrs by Western blot analysis (reference value: 1); format: functional
# [12] = Effect on AKT expression in rat RG2 cells at 206 uM after 48 hrs by Western blot analysis (reference value: 1); format: functional
# [13] = Effect on p38 expression in rat RG2 cells at 112.4uM after 48 hrs by Western blot analysis (reference value: 1); format: functional
# [14] = Synergistic cytotoxicity against rat CTX TNA2 cells assessed as synergistic effect index at 134.9 uM after 48 hrs in presence of 103 uM TMZ by MTT assay; format: cell-based; conditions: ctx tna2, 48 h
# [15] = Toxicity in BALB/c mouse xenografted with DBTRG-05MG cells assessed as inflammatory cell infiltration score in liver at 75 mg/kg, sc co-treated with TMZ for 18 days by H and E staining-based bright field microscopic analysis; format: organism-based; conditions: in vivo, 432 h, time 18 day
# RG2 [16] = assay: Induction of cell cycle arrest in rat RG2 cells assessed as CyclinD1 expression at 112.4 uM after 48 hrs by Western blot analysis (reference value: 1); format: functional
# [17] = Synergistic cytotoxicity against rat CTX TNA2 cells assessed as synergistic effect index at 112.4 uM after 48 hrs in presence of 206 uM TMZ by MTT assay; format: cell-based; conditions: ctx tna2, 48 h
# [18] = Inhibition of TMZ-induced drug resistance in rat RG2 cells assessed as CD133 expression at 112.4 uM after 48 hrs by Western blot analysis (reference value: 2.4); format: functional
# DBTRG-05MG [19] = assay: Induction of apoptosis in human DBTRG-05MG cells assessed as Bcl2 expression at 112.4 uM after 48 hrs by Western blot analysis (reference value: 1); format: functional
# RG2 [20] = assay: Induction of cell cycle arrest in rat RG2 cells assessed as accumulation at G0/G1 phase at 112.4 uM after 48 hrs in presence of TMZ by propidium iodide staining based flow cytometric analysis (reference value: 57.81 +/- 1.9%); format: functional
# [21] = Synergistic cytotoxicity against rat CTX TNA2 cells assessed as combination index at 134.9 uM after 48 hrs in presence of 412.1 uM TMZ by MTT assay; format: cell-based; conditions: ctx tna2, 48 h
# RG2 [22] = assay: Induction of cell cycle arrest in rat RG2 cells assessed as CDK2 expression at 112.4uM after 48 hrs by Western blot analysis (reference value: 1); format: functional
# DBTRG-05MG [23] = assay: Induction of apoptosis in human DBTRG-05MG cells assessed as Bax expression at 112.4 uM after 48 hrs in presence of TMZ by Western blot analysis (reference value: 1); format: functional
# RG2 [24] = assay: Synergistic cytotoxicity against rat RG2 cells assessed as combination index at 112.4 uM after 48 hrs in presence of 309 uM TMZ by MTT assay; format: functional
# DBTRG-05MG [25] = assay: Induction of apoptosis in human DBTRG-05MG cells assessed as cleaved PARP expression at 112.4 uM after 48 hrs by Western blot analysis (reference value: 1); format: functional
# RG2 [26] = assay: Induction of cell cycle arrest in rat RG2 cells assessed as CyclinB1 expression at 112.4 uM after 48 hrs by Western blot analysis (reference value: 1); format: functional
# RG2 [27] = assay: Induction of apoptosis in rat RG2 cells assessed as cleaved caspace-9 expression at 112.4 uM after 48 hrs by Western blot analysis (reference value: 1); format: functional
# DBTRG-05MG [28] = assay: Induction of apoptosis in human DBTRG-05MG cells assessed as phosphorylated caspace-9 expression at 112.4 uM after 48 hrs in presence of TMZ by Western blot analysis (reference value: 1); format: functional
# DBTRG-05MG [29] = assay: Synergistic cytotoxicity against human DBTRG-05MG cells assessed as combination index at 134.9 uM after 48 hrs in presence of 515.1 uM TMZ by MTT assay; format: functional
# RG2 [30] = assay: Synergistic cytotoxicity against rat RG2 cells assessed as synergistic effect index at 89.9 uM after 48 hrs in presence of 412.1 uM TMZ by MTT assay; format: functional
# RG2 [31] = assay: Induction of cell cycle arrest in rat RG2 cells assessed as accumulation at G2/M phase at 112.4 uM after 12 hrs by propidium iodide staining based flow cytometric analysis (reference value: 20.04 +/- 0.55%); format: functional
# [32] = Effect on ERK expression in human DBTRG-05MG cells at 112.4uM after 48 hrs by Western blot analysis (reference value: 1); format: functional
# DBTRG-05MG [33] = assay: Synergistic cytotoxicity against human DBTRG-05MG cells assessed as synergistic effect index at 89.9 uM after 48 hrs in presence of 412.1 uM TMZ by MTT assay; format: functional
# DBTRG-05MG [34] = assay: Inhibition of JNK phosphorylation at Thr183/Tyr185 residues in human DBTRG-05MG cells at 112.4uM after 48 hrs by Western blot analysis (reference value: 1); format: cell-based
# DBTRG-05MG [35] = assay: Induction of apoptosis in human DBTRG-05MG cells assessed as increase in DNA fragmentation at 112.4 uM after 48 hrs by TUNEL assay; format: functional, cell-based
smiles,measurement,setting,value
Cn1nnc2c(C(N)=O)ncn2c1=O [TEMOZOLOMIDE],fold change (FC),DBTRG-05MG [1],0.8
same,fold change (FC),RG2 [2],0.9
same,Activity,DBTRG-05MG [3],23.42%
same,fold change (FC),RG2 [4],0.9
same,fold change (FC),DBTRG-05MG [5],1.3
same,fold change (FC),DBTRG-05MG [6],2.1
same,fold change (FC),RG2 [7],2.3
same,Activity,DBTRG-05MG [8],53.64%
same,fold change (FC),DBTRG-05MG [9],1.8
same,fold change (FC),RG2 [10],0.8
same,fold change (FC),[11],1
same,fold change (FC),[12],0.6
C[C@@H]1CC[C@H]2C(C)(C)[C@H]3C[C@@]12CC[C@@]3(C)O [CEDROL],fold change (FC),[13],0.8
same,Activity_index,[14],0.28
same,Activity,[15],1.23
same,fold change (FC),RG2 [16],1.4
same,Activity_index,[17],0.4
same,fold change (FC),[18],1.3
same,fold change (FC),DBTRG-05MG [19],1.3
same,Activity,RG2 [20],44%
same,CI,[21],1.13
same,fold change (FC),RG2 [22],0.7
same,fold change (FC),DBTRG-05MG [23],1.7
same,CI,RG2 [24],0.9
same,fold change (FC),DBTRG-05MG [25],1
same,fold change (FC),RG2 [26],0.5
same,fold change (FC),RG2 [27],1.3
same,fold change (FC),DBTRG-05MG [28],0.4
same,CI,DBTRG-05MG [29],0.68
same,Activity_index,RG2 [30],0.66
same,Activity,RG2 [31],18.1%
same,fold change (FC),[32],1
same,Activity_index,DBTRG-05MG [33],0.76
same,fold change (FC),DBTRG-05MG [34],1
same,Activity,DBTRG-05MG [35],Active
